Measured values taken from US20240180909A1, “Dosing Regimens for Elagolix” (AbbVie Inc., priority 2018, published 2024).

Test system: premenopausal women with heavy menstrual bleeding associated with uterine fibroids
Test: Twelve month study with 300 mg BID (initial studies and extension study), heavy menstrual bleeding responder rate
Assay type: in vivo, human
Method: This study was a randomized, double-blind, multicenter, extension study designed to evaluate the efficacy and safety of elagolix alone and in combination with an exemplary low-dose hormone (add-back) therapy (estradiol (“E2”) 1.0 mg/norethindrone acetate (“NETA”) 0.5 mg) in premenopausal women with heavy menstrual bleeding associated with uterine fibroids for up to 12 months total (an initial 6 months on active treatment in one of two replicate initial (i.e., pivotal) studies and an additional 6 months in this extension study.
Subjects who received elagolix 300 mg twice daily or elagolix 300 mg twice daily in combination with E2/NETA in the initial studies continued to receive the same treatment (n=94 and 206, respectively) while subjects who received placebo in the initial studies were randomized in an equal ratio to one of the two treatment groups (elagolix 300 mg BID (n=56) or elagolix 300 mg BID+E2/NETA (n=54)).
The primary efficacy endpoint was the percentage of subjects meeting the responder criteria: a) menstrual blood loss (MBL) volume<80 mL during the final, AND b) 50% or greater reduction in MBL volume from baseline to the final month. […]

Hypoestrogenic effects, such as hot flush and reduction in bone mineral density (initial and extension studies, elagolix 300 mg BID): observed
Structure (SMILES): COc1cccc(-c2c(C)n(Cc3c(F)cccc3C(F)(F)F)c(=O)n(C[C@H](NCCCC(=O)O)c3ccccc3)c2=O)c1F [Elagolix, 4-((R)-2-[5-(2-fluoro-3-methoxy-phenyl)-3-(2-fluoro-6-trifluoromethyl-benzyl)-4-methyl-2,6-dioxo-3,6-dihydro-2H-pyrimidin-1-yl]-1-phenyl-ethylamino)-butyric acid]
safety signals (up to twelve months of treatment): no new safety signals
